Test results from article PMC9636434, “Discovery of small molecule agonists of the Relaxin Family Peptide Receptor 2” (Communications Biology, 2022).
Values joined by “and” are separate entries in the source; they are usually repeats but may differ in a detail not shown here. Identical values can stand only once.

Key:
WT RXFP1 = biological target: T1, WT RXFP1 (Homo sapiens, UniProt Q9HBX9); assay: HTRF cAMP assay in HEK293T cells transiently transfected with WT RXFP1; type: cell-based
T1 construct: expressed in transfected cells; host or cells: HEK293T, transient transfection, pcDNA3.1/Zeo(+)
T1 sequence (Q9HBX9 1-757): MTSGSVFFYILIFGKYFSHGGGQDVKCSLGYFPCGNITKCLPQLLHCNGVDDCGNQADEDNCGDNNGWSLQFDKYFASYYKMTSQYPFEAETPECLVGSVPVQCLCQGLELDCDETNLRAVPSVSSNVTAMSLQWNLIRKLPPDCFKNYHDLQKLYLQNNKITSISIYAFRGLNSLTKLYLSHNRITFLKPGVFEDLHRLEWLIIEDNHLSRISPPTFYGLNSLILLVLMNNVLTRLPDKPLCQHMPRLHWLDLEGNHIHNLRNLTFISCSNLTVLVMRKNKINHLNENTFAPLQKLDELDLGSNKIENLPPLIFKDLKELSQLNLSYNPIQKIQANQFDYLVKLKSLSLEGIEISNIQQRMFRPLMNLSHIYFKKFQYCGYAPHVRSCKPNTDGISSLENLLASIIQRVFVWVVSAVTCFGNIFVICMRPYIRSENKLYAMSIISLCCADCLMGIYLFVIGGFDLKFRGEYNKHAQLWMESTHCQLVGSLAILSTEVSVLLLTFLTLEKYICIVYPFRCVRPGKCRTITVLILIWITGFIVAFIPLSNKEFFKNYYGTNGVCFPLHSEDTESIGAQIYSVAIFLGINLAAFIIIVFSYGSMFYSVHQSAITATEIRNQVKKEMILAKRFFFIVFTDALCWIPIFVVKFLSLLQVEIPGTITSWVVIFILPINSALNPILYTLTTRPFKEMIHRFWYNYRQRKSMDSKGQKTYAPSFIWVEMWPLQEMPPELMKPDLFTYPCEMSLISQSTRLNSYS
Protocol: Fig. 2 6641 is an allosteric agonist of RXFP2. a HEK-RXFP2 cells co-treated with serial dilutions of INSL3 B dimer antagonist and 30 nM INSL3 or 0.28 µM 6641. HTRF cAMP dose-response inhibition curves were normalized to activity without antagonist co-treatment as 0% inhibition. b HTRF cAMP assay in HEK293T cells transiently transfected with WT or chimeric receptors. Chimera RXFP2-1 contains the extracellular domain of RXFP2 and the transmembrane domain of RXFP1, while chimera RXFP1-2 contains the extracellular domain of RXFP1 and the transmembrane domain of RXFP2. For each receptor, cAMP response induced by INSL3 and 6641 was normalized to FSK (2 µM) as 100% efficacy and DMSO vehicle as 0% efficacy. Emax and EC50 were calculated using four parameter nonlinear fit dose-response curves. Results are expressed as mean ± SEM of 3 independent experiments. Diagrams of the chimeric receptors were produced using GPCRdb.org[58], [59].
Complementary RXFP2-1 and RXFP1-2 chimeric receptors were used to further investigate the involvement of the RXFP2 extracellular and transmembrane domains on 6641 activity. RXFP2-1 has the extracellular domain of RXFP2 and transmembrane domain of RXFP1, and RXFP1-2 is its complement.
The HTRF Gs dynamic cAMP assay kit (CisBio, Bedford, MA) was used to measure intracellular cAMP accumulation in HEK293T cells (ATCC, Manassas, VA)[56]. […] The cell stock was verified mycoplasma free and authenticated by ATCC. Transient transfection was accomplished by treating cells in a 6-well plate with a mixture of 2 μg plasmid and 6 μL Lipofectamine 2000 (Invitrogen, Waltham, MA) per manufacturer’s protocol and incubating overnight. For cAMP measurement in 96-well format, HEK293T cells stably transfected with human RXFP2 (HEK-RXFP2), human RXFP1 (HEK-RXFP1), mouse Rxfp1 (HEK-Rxfp1) or transiently transfected with human RXFP1-RXFP2 chimeric receptors were seeded between 7500 and 30,000 cells per well, depending on cell line responsiveness, in serum-free DMEM medium and incubated overnight at 37 °C, 5% CO2. After 18 h, cells were treated with a titration of compound, 2 μM forskolin, or DMSO vehicle. Control wells were also treated with a titration of INSL3 (Phoenix Pharmaceuticals, Burlingame, CA) or human recombinant relaxin 2 (Peprotech, Cranbury, NJ). For the RXFP2 antagonist experiment, cells were co-treated with 0.28 μM compound or 30 nM INSL3 and a titration of the INSL3 B dimer antagonist[38],[39]. For the INSL3 allosteric modulation experiment, cells were co-treated with 0.025, 0.0025, or 0.00025 μM of compound and a titration of INSL3. […] Plates were incubated for 1 h at room temperature and the signal was read on a CLARIOstar plate reader (BMG Labtech, Ortenberg, Germany) at 665 and 620 nm emission wavelengths.

[1] = tested on: osteoblast markers Alp, Col1a1, Osteocalcin, Runx2; assay: Quantitative RT-PCR of osteoblast markers in tibia after 8-week oral treatment; type: in vivo, mouse; settings: normalized to control group, 10 mg/kg PO, 8 weeks, individual mice
RXFP2 = RXFP2 (Homo sapiens, UniProt Q8WXD0); assay: PRESTO-Tango β-arrestin recruitment, RXFP2; type: cell-based; set-up: host or cells: HTLA (transient); settings: 10 µM compound
Protocol: β-arrestin is an important GPCR adaptor protein that mediates several receptor processes including signaling, desensitization, and trafficking. The PRESTO-Tango GPCRome assay was further used to test specificity and selectivity of lead RXFP2 agonists 6641 and 4337. GPCR-mediated β-arrestin recruitment for a panel of 320 human GPCRs was studied in transiently transfected HTLA cells treated with 10 µM compound. The results for all 320 GPCRs tested are summarized in Supplementary Data 1. […] ADORA1 activation by an agonist results in Gαi protein binding, an inhibition of adenylate cyclase and, therefore, a decrease in the cAMP concentration.
To further investigate possible off-target effects of small molecule agonists of RXFP2 on GPCRs, we performed a PRESTO-Tango assay of 320 GPCRs to detect β-arrestin recruitment to the receptors after treatment with our compounds. […] This might be beneficial in clinical applications, as it potentially reduces the amount of drug needed to induce a biological response for this target, even in cells with low receptor expression. It should be noted also that a PRESTO-Tango assay is not designed to detect inhibitors of β-arrestin recruitment.
The PRESTO-Tango GPCRome assay was used to perform a HTS of related GPCRs to study specificity and selectivity of the RXFP2 agonists by measuring β-arrestin translocation activity. […]

Sequence of RXFP2 (Q8WXD0 whole entry): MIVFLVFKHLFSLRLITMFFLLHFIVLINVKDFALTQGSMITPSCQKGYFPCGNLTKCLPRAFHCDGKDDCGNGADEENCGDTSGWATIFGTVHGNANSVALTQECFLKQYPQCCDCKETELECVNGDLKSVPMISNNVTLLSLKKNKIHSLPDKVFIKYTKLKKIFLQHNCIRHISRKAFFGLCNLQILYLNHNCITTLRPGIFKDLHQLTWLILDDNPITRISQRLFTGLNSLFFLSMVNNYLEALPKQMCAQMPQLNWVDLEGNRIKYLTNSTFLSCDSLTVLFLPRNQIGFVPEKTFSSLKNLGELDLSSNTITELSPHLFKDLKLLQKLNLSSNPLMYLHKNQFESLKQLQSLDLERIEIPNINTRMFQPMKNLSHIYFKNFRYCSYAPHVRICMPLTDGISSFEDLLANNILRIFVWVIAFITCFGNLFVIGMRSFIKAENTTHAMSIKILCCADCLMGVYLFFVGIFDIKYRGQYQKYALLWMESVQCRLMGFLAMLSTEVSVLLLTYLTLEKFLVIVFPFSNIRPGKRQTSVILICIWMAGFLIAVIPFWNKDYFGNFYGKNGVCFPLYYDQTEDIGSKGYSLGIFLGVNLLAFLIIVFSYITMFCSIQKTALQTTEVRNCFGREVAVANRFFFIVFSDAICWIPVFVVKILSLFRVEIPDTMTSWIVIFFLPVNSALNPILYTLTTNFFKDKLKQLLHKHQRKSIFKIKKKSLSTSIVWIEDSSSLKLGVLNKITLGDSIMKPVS

O=C1Nc2ccc(-c3cc(C(F)(F)F)cc(C(F)(F)F)c3)cc2C(=O)N2CCN(C(=O)COc3ccc(OC(F)(F)F)cc3I)C[C@@H]12 [compound 6641]
EC50 (1)-(3) (WT RXFP1; 6641, individual experiments): Inactive
EC50 (AVERAGE) (WT RXFP1; 6641, mean of 3): Inactive
Emax (1)-(3) (WT RXFP1; individual experiments, FSK (2 µM) = 100% efficacy): Inactive
Emax (AVERAGE) (WT RXFP1; mean of 3, FSK (2 µM) = 100% efficacy): Inactive
Alp gene expression [1]: No significant differences and 0.88 and 1.46 and 1.09 and 1.63 and 1.11 and 1.2 and 1.13 and 0.7 and 1.17 and 0.71 and 0.82 and 1.61 and 1.28 and 1.02
Col1a1 gene expression [1]: No significant differences and 1.04 and 1.44 and 0.9 and 1.62 and 0.96 and 1.32 and 0.82 and 1.12 and 1.24 and 0.81 and 0.88 and 1.29 and 0.93
Osteocalcin gene expression [1]: significant increase and 1.47 and 0.79 and 1.35 and 1.31 and 2.35 and 1.34 and 2.19 and 1.5 and 2.42 and 1.3 and 1.4 and 1.23 and 2.1 and 1.83 and 1.39
Runx2 gene expression [1]: decrease and 0.41 and 0.71 and 0.95 and 0.75 and 1.16 and 0.6 and 0.57 and 0.72 and 0.73 and 0.89 and 0.83 and 1.42 and 1.07 and 0.66
RXFP2-mediated β-arrestin recruitment (RXFP2): not detected
